Tests used:
mouse hepatocytes = assay: Metabolite characterization in mouse hepatocytes; type: in vitro ADME; settings: mouse hepatocyte 1 h incubates of ETN101; ND:<1.2E+05 peak area
Procedure: We mixed 60 μL aliquots of 40 μM ETN101 in incubation medium and an equal volume of human, mouse, rat, dog, or monkey hepatocyte suspension in 96-well plates and incubated for 0 or 1 h in a CO2 incubator at 37 °C. The reactions were quenched by adding 120 µL of ice-cold acetonitrile to each well, and the cell suspension was sonicated for 5 min at 4 °C. Subsequently, centrifugation was carried out at 15,000× g for 10 min at 4 °C. Next, the supernatants were evaporated to dryness using a vacuum concentrator, and residues were re-dissolved in 70 μL of 30% acetonitrile. Each sample (5 μL aliquots) was analyzed using LC–HRMS system.
For metabolite characterization, a Vanquish HPLC system (Thermo Fisher Scientific, San José, CA, USA) coupled with a Q-Exactive Orbitrap mass spectrometer (Thermo Fisher Scientific Inc., Waltham, MA, USA) was used at Core Research Support Center for Natural Products and Medical Materials at Yeungnam University. […] The eluent from the column was directly injected into the mass spectrometer using a heated electrospray ionization (HESI) source in positive ionization mode. […] The spray voltage was 3.0 kV and the capillary temperature was 320 °C. Full scan MS^1 with a data-dependent MS^2 acquisition mode was applied to obtain MS^1 scan data ranging from m/z 80 to 900, at a resolution of 70,000, whereas data-dependent MS^2 spectra were acquired for the five most abundant peaks per cycle at a resolution of 35,000. The parallel reaction monitoring (PRM) mode was used to obtain the MS^2 spectra of putative metabolites detected at low peak intensities in the data-dependent MS^2 acquisition mode. Data were collected and interpreted using Thermo Scientific Xcalibur™ Software (Thermo Fisher Scientific).

CYP2A6 = biological target: T1, CYP2A6 (Homo sapiens, UniProt P11509); assay: Incubation with human cDNA-expressed CYP2A6; type: in vitro ADME; settings: CYP2A6, 30 min at 37 °C with NADPH; ETN101 10 μM or M1 1 μM
T1 construct: purchased Corning Life Sciences (Woburn, MA, USA)
T1 sequence (P11509 1-494): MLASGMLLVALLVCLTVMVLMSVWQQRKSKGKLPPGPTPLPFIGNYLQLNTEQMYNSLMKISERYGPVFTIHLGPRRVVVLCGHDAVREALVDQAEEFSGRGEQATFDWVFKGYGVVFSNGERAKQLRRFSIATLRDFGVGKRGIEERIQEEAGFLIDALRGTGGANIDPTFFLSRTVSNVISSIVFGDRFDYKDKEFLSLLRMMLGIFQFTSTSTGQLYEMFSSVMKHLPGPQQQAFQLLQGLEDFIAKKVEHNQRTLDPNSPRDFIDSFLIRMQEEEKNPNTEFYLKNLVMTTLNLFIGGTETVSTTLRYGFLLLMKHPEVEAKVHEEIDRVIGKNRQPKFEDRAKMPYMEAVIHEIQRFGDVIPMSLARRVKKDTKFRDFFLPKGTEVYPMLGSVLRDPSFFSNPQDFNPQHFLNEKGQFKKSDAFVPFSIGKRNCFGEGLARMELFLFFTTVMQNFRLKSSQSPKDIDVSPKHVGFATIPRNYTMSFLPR
Procedure: ETN101 or M1 was incubated with nine human cDNA-expressed CYP enzymes (1A2, 2A6, 2B6, 2C8, 2C9, 2C19, 2D6, 2E1, and 3A4) to identify the CYPs involved in the metabolism of ETN101. Based on the preliminary study, the incubation conditions were determined as follows: Briefly, reaction mixtures of 50 μL containing ETN101 (final concentration: 10 μM) or M1 (final concentration: 1 μM), and CYPs (final amount: 5 pmol for CYP1A2, 2A6, 2C8, 2C9, 2C19, 2D6, and 3A4; 10 pmol for CYP2B6 and 2E1) were prepared in 0.1 M potassium phosphate buffer. The reaction was initiated by adding 50 μL of NADPH- regenerating system; the mixtures were incubated for 0 min or 30 min at 37 °C in triplicate. Reactions were terminated by the addition of 100 μL of ice-cold acetonitrile containing the IS (camptothecin, 200 ng/mL). Samples were centrifuged at 13,000 rpm for 5 min at 4 °C. An aliquot of 2 μL supernatant was injected in LC–MS/MS system.
For enzyme characterization, an Agilent 6460 triple quadrupole mass spectrometer coupled with a 1260 HPLC system (Agilent Technologies, Santa Clara, CA, USA) and a Kinetex Halo® C18 column (2.7 μm, 2.1 × 50 mm, Advanced Material Technology, Wilmington, DE, USA) were used for chromatographic separation. […] ETN101, M1, and M2 were detected via MRM using ESI in the positive mode. […]

Structure (SMILES) | Relative peak area (%) (mouse hepatocytes) | Percentage remaining (CYP2A6) [%]
NCC(N)C(=O)Nc1ccc(-c2nc3ccccc3s2)cc1 (stereo not shown) [ETN101, 2,3-diamino-N-(4-(benzo[d]thiazol-2-yl)phenyl)propanamide] | 26.8 | 115.6
Nc1ccc(-c2nc3ccccc3s2)cc1 [M1, 2-(4-aminophenyl)benzothiazole] | 71.8 | 105.9

Reference: article PMC11356571, “The Comparative Metabolism of a Novel Hepatocellular Carcinoma Therapeutic Agent, 2,3-Diamino-N-(4-(benzo[d]thiazol-2-yl)phenyl)propanamide, in Human and Animal Hepatocytes” (Metabolites, 2024)
